How the values were obtained:
Format in all cases: in vivo
kochia (Kochia scoparia) = assay: Test A greenhouse herbicide test, pre- and postemergence
Outline: (§1)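 Seeds in loam–sand blend received a preemergence directed soil spray; plants at 2–10 cm, one- to two-leaf stage, received postemergence sprays. Compounds in a non-phytotoxic solvent with surfactant. After about 10 d in a greenhouse, injury rated visually versus untreated controls on a 0–100 scale (100 = complete control).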

[1] = test system: wheat (Triticum aestivum); assay: as above; details: Postemergence; for Plant response rating, Wheat: 125 g ai/ha, 0 to 100 scale where 0 is no effect and 100 is complete control; for Wheat plant response rating: 0 to 100 scale, 0 is no effect, 100 is complete control
Outline: as §1

[2] = test system: barnyardgrass (Echinochloa crus-galli); assay: as above
Outline: as §1

[3] = test system: pigweed (Amaranthus retroflexus); assay: as above
Outline: as §1

[4] = test system: ryegrass, Italian (Italian ryegrass, Lolium multiflorum); assay: as above
Outline: as §1

corn (Zea mays) = assay: as above; details: Postemergence; for Plant response rating, Corn: 125 g ai/ha, 0 to 100 scale where 0 is no effect and 100 is complete control; for Corn plant response rating: 0 to 100 scale, 0 is no effect, 100 is complete control
Outline: as §1

[5] = test system: foxtail, giant (giant foxtail, Setaria faberii); assay: as above
Outline: as §1

[6] = test system: ragweed (common ragweed, Ambrosia elatior); assay: as above
Outline: as §1

[7] = test system: barnyardgrass (Echinochloa crus-galli); assay: Test C greenhouse herbicide test, pre- and postemergence
Outline: (§2)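 Seeds sown in loam–sand blend treated preemergence; plants in peat-based medium sprayed postemergence at 2–18 cm (1- to 4-leaf stage); chemicals in non-phytotoxic solvent with surfactant. Greenhouse 13–15 d, then visual rating versus controls on 0–100 scale (0 no effect, 100 complete control).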

[8] = test system: galium (catchweed bedstraw, Galium aparine); assay: as above
Outline: as §2

[9] = test system: velvetleaf (Abutilon theophrasti); assay: as above
Outline: as §2

[10] = Postemergence, 125 g ai/ha, 0 to 100 scale where 0 is no effect and 100 is complete control
[11] = Postemergence, 500 g ai/ha, 0 to 100 scale, 0 is no effect, 100 is complete control
[12] = Preemergence, 125 g ai/ha, 0 to 100 scale where 0 is no effect and 100 is complete control
[13] = Preemergence, 500 g ai/ha, 0 to 100 scale, 0 no effect, 100 complete control
[14] = Postemergence, 31 g ai/ha, 0 to 100 scale (0 no effect, 100 complete control)
[15] = Postemergence, 125 g ai/ha, scale 0 to 100, 0 is no effect, 100 is complete control
[16] = Postemergence, 250 g ai/ha, scale 0 to 100, 0 no effect, 100 complete control, 13 to 15 d
[17] = Preemergence, 31 g ai/ha, scale 0 to 100, 0 is no effect, 100 is complete control
[18] = Preemergence, 62 g ai/ha, scale 0 to 100, 0 is no effect, 100 is complete control
[19] = Preemergence, 125 g ai/ha, scale 0 to 100, 0 is no effect, 100 is complete control
[20] = Preemergence, 250 g ai/ha, scale 0 to 100 (0 no effect, 100 complete control)
[21] = postemergence, 62 g ai/ha, scale 0 to 100, 0 no effect, 100 complete control
[22] = Postemergence, 1000 g ai/ha, 0 to 100 scale, 0 is no effect, 100 is complete control
[23] = Preemergence, 1000 g ai/ha, 0 to 100 scale, 0 no effect, 100 complete control

## Cc1ccc2ccccc2c1-c1c(O)c(C)nn(C)c1=O [Compound 59]
Kochia (Kochia scoparia); [10]
  Plant response rating, Kochia: 100
Kochia (Kochia scoparia); [11]
  Kochia plant response rating: 100
Kochia (Kochia scoparia); [12]
  Kochia plant response rating: 90
Kochia (Kochia scoparia); [13]
  Plant response rating, Kochia: 90
[1]
  Plant response rating, Wheat: 50
[1]; 500 g ai/ha
  Wheat plant response rating: 100
[2]; [10]
  Plant response rating, Barnyardgrass: 80
[2]; [11]
  Barnyardgrass plant response rating: 90
[2]; [12]
  Barnyardgrass plant response rating: 80
[2]; [13]
  Plant response rating, Barnyardgrass: 100
[3]; [10]
  Plant response rating, Pigweed: 100
[3]; [11]
  Pigweed plant response rating: 100
[3]; [12]
  Pigweed plant response rating: 100
[3]; [13]
  Plant response rating, Pigweed: 100
[4]; [10]
  Plant response rating, Ryegrass, Italian: 100
[4]; [11]
  Ryegrass, Italian plant response rating: 100
[4]; [12]
  Ryegrass, Italian plant response rating: 90
[4]; [13]
  Plant response rating, Ryegrass, Italian: 100
Corn (Zea mays)
  Plant response rating, Corn: 20
Corn (Zea mays); 500 g ai/ha
  Corn plant response rating: 60
[5]; [10]
  Plant response rating, Foxtail, Giant: 90
[5]; [11]
  Foxtail, Giant plant response rating: 100
[5]; [12]
  Foxtail, Giant plant response rating: 90
[5]; [13]
  Plant response rating, Foxtail, Giant: 100
[6]; [10]
  Plant response rating, Ragweed: 90
[6]; [11]
  Ragweed plant response rating: 100
[6]; [12]
  Ragweed plant response rating: 90
[6]; [13]
  Plant response rating, Ragweed: 100
[7]; [14]
  Barnyardgrass plant response rating: 20
[7]; [15]
  Plant response rating, Barnyardgrass: 55
[7]; [16]
  Plant response rating, Barnyardgrass: 70
[7]; [17]
  Plant response rating, Barnyardgrass: 30
[7]; [18]
  Plant response rating, Barnyardgrass: 70
[7]; [19]
  Plant response rating, Barnyardgrass: 90
[7]; [20]
  Barnyardgrass plant response rating: 95
[7]; [21]
  Barnyardgrass plant response rating: 30
[8]; [14]
  Galium plant response rating: 95
[8]; [15]
  Plant response rating, Galium: 98
[8]; [16]
  Plant response rating, Galium: 98
[8]; [17]
  Plant response rating, Galium: 98
[8]; [18]
  Plant response rating, Galium: 95
[8]; [19]
  Plant response rating, Galium: 98
[8]; [20]
  Galium plant response rating: 98
[8]; [21]
  Galium plant response rating: 98
[9]; [14]
  Velvetleaf plant response rating: 80
[9]; [15]
  Plant response rating, Velvetleaf: 90
[9]; [16]
  Plant response rating, Velvetleaf: 95
[9]; [17]
  Plant response rating, Velvetleaf: 85
[9]; [18]
  Plant response rating, Velvetleaf: 90
[9]; [19]
  Plant response rating, Velvetleaf: 98
[9]; [20]
  Velvetleaf plant response rating: 100
[9]; [21]
  Velvetleaf plant response rating: 85

## Cc1ccc(-c2c(O)c(Br)nn(C)c2=O)c2ccccc12 [Compound 52]
Kochia (Kochia scoparia); [10]
  Plant response rating, Kochia: 40
Kochia (Kochia scoparia); [11]
  Kochia plant response rating: 100
Kochia (Kochia scoparia); [12]
  Kochia plant response rating: 0
Kochia (Kochia scoparia); [13]
  Plant response rating, Kochia: 80
[1]
  Plant response rating, Wheat: 0
[1]; 500 g ai/ha
  Wheat plant response rating: 0
[2]; [10]
  Plant response rating, Barnyardgrass: 10
[2]; [11]
  Barnyardgrass plant response rating: 50
[2]; [12]
  Barnyardgrass plant response rating: 50
[2]; [13]
  Plant response rating, Barnyardgrass: 70
[3]; [10]
  Plant response rating, Pigweed: 10
[3]; [11]
  Pigweed plant response rating: 30
[3]; [12]
  Pigweed plant response rating: 10
[3]; [13]
  Plant response rating, Pigweed: 60
[4]; [10]
  Plant response rating, Ryegrass, Italian: 70
[4]; [11]
  Ryegrass, Italian plant response rating: 80
[4]; [12]
  Ryegrass, Italian plant response rating: 80
[4]; [13]
  Plant response rating, Ryegrass, Italian: 80
Corn (Zea mays)
  Plant response rating, Corn: 0
Corn (Zea mays); 500 g ai/ha
  Corn plant response rating: 20
[5]; [10]
  Plant response rating, Foxtail, Giant: 40
[5]; [11]
  Foxtail, Giant plant response rating: 50
[5]; [12]
  Foxtail, Giant plant response rating: 40
[5]; [13]
  Plant response rating, Foxtail, Giant: 60
[6]; [10]
  Plant response rating, Ragweed: 90
[6]; [11]
  Ragweed plant response rating: 100
[6]; [12]
  Ragweed plant response rating: 20
[6]; [13]
  Plant response rating, Ragweed: 80
[7]; [14]
  Barnyardgrass plant response rating: 5
[7]; [15]
  Plant response rating, Barnyardgrass: 5
[7]; [16]
  Plant response rating, Barnyardgrass: 10
[7]; [21]
  Barnyardgrass plant response rating: 5
[8]; [14]
  Galium plant response rating: 90
[8]; [15]
  Plant response rating, Galium: 100
[8]; [16]
  Plant response rating, Galium: 100
[8]; [21]
  Galium plant response rating: 100
[9]; [14]
  Velvetleaf plant response rating: 5
[9]; [15]
  Plant response rating, Velvetleaf: 55
[9]; [16]
  Plant response rating, Velvetleaf: 100
[9]; [21]
  Velvetleaf plant response rating: 25

## Cc1ccc2ccc(C)c(-c3c(O)c(C)nn(C)c3=O)c2c1 [Compound 60]
Kochia (Kochia scoparia); [22]
  Kochia plant response rating: 100
Kochia (Kochia scoparia); [23]
  Plant response rating, Kochia: 80
[1]; 1000 g ai/ha
  Wheat plant response rating: 70
[2]; [22]
  Barnyardgrass plant response rating: 90
[2]; [23]
  Plant response rating, Barnyardgrass: 80
[3]; [22]
  Pigweed plant response rating: 100
[3]; [23]
  Plant response rating, Pigweed: 100
[4]; [22]
  Ryegrass, Italian plant response rating: 100
[4]; [23]
  Plant response rating, Ryegrass, Italian: 100
Corn (Zea mays); 1000 g ai/ha
  Corn plant response rating: 50
[5]; [22]
  Foxtail, Giant plant response rating: 90
[5]; [23]
  Plant response rating, Foxtail, Giant: 90
[6]; [22]
  Ragweed plant response rating: 100
[6]; [23]
  Plant response rating, Ragweed: 100
[7]; [14]
  Barnyardgrass plant response rating: 20
[7]; [15]
  Plant response rating, Barnyardgrass: 35
[7]; [16]
  Plant response rating, Barnyardgrass: 65
[7]; [17]
  Plant response rating, Barnyardgrass: 10
[7]; [18]
  Plant response rating, Barnyardgrass: 40
[7]; [19]
  Plant response rating, Barnyardgrass: 85
[7]; [20]
  Barnyardgrass plant response rating: 90
[7]; [21]
  Barnyardgrass plant response rating: 25
[8]; [14]
  Galium plant response rating: 100
[8]; [15]
  Plant response rating, Galium: 100
[8]; [16]
  Plant response rating, Galium: 100
[8]; [17]
  Plant response rating, Galium: 90
[8]; [18]
  Plant response rating, Galium: 95
[8]; [19]
  Plant response rating, Galium: 98
[8]; [20]
  Galium plant response rating: 100
[8]; [21]
  Galium plant response rating: 100
[9]; [14]
  Velvetleaf plant response rating: 40
[9]; [15]
  Plant response rating, Velvetleaf: 90
[9]; [16]
  Plant response rating, Velvetleaf: 95
[9]; [17]
  Plant response rating, Velvetleaf: 75
[9]; [18]
  Plant response rating, Velvetleaf: 85
[9]; [19]
  Plant response rating, Velvetleaf: 95
[9]; [20]
  Velvetleaf plant response rating: 98
[9]; [21]
  Velvetleaf plant response rating: 85

Source: patent US10597388B2, “Pyridazinone herbicides” (FMC CORPORATION, priority 2014, dated 2020)
